Series [1] concerns the target T1, Interstitial collagenase (Homo sapiens, UniProt P03956).
T1 sequence (P03956 whole entry): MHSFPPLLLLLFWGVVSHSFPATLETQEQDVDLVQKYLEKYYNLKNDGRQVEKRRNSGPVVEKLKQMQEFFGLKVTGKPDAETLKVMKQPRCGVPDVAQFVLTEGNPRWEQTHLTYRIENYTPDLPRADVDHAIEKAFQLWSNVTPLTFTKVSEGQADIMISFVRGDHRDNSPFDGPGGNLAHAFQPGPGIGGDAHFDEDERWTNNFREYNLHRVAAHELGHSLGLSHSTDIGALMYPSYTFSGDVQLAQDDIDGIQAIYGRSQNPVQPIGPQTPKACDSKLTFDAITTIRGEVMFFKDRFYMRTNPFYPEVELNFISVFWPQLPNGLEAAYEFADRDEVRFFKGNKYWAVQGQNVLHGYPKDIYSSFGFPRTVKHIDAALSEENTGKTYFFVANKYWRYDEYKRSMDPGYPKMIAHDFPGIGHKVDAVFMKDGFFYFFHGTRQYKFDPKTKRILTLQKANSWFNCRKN
It is filed as cell-based, HT-1080.

The target of series [2] is 72 kDa type IV collagenase (Homo sapiens, UniProt P08253).
Sequence of 72 kDa type IV collagenase (P08253 whole entry): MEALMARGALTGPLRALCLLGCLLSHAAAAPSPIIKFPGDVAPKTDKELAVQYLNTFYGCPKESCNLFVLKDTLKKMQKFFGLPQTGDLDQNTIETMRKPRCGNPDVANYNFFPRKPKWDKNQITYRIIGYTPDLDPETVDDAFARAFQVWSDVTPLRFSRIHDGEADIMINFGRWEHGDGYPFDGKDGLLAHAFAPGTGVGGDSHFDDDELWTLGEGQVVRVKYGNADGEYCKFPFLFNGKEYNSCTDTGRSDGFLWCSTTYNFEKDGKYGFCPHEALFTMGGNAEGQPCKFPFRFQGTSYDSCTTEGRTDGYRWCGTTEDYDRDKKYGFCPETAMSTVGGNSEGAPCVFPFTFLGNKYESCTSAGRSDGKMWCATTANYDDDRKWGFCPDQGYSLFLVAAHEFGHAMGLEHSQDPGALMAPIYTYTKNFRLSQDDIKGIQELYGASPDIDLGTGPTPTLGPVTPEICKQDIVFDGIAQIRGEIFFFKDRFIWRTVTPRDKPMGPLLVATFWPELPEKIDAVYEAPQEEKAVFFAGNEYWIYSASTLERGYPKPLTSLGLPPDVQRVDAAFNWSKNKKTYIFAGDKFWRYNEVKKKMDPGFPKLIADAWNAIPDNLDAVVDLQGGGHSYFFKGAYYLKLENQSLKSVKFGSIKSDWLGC
Series [3] deals with Stromelysin-1 (Homo sapiens, UniProt P08254).
Sequence of Stromelysin-1 (P08254 whole entry): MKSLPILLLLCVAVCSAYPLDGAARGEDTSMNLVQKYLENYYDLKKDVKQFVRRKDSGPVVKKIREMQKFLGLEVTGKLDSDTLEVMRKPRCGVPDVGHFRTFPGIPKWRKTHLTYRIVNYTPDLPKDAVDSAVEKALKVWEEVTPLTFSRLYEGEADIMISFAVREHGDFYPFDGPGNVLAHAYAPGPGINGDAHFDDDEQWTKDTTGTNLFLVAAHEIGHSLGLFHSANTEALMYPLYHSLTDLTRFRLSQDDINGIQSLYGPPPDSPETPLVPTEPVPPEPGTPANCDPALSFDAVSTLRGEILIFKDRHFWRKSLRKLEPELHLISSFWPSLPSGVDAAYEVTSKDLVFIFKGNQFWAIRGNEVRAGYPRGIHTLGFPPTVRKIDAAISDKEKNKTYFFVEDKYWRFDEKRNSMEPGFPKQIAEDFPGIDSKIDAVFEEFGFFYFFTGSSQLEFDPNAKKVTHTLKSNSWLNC
For series [4], the target named is T2, Matrilysin (Homo sapiens, UniProt P09237).
T2 sequence (P09237 whole entry): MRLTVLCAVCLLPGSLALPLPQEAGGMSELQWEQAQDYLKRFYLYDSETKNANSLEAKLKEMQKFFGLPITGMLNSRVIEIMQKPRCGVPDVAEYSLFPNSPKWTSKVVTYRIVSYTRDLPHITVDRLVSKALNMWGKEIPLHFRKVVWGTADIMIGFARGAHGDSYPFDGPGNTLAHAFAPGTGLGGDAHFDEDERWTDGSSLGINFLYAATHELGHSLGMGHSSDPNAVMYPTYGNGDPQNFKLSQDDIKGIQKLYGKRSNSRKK

In series [5] the target is Neutrophil collagenase (Homo sapiens, UniProt P22894).
Sequence of Neutrophil collagenase (P22894 whole entry): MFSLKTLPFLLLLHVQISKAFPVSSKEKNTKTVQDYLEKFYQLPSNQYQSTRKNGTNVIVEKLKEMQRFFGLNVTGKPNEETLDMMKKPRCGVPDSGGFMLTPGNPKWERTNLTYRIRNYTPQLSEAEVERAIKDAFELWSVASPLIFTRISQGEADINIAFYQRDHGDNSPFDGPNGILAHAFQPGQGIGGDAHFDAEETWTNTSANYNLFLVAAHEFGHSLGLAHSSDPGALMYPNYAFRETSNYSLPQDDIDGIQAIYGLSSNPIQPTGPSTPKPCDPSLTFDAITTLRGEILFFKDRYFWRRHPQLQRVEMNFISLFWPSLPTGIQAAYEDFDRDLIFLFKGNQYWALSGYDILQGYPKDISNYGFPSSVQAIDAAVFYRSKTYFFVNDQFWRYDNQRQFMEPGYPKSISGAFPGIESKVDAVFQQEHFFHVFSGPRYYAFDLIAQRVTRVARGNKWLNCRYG
In series [6] the target is Collagenase 3 (Homo sapiens, UniProt P45452).
The nature of series [7]: Cmax in rat at 10 mg/mL, iv and po. The series is classed as ADME, organism-based. Conditions: in vivo.
The test system of series [8] is Rattus norvegicus. As to the kind of experiment: Plasma concentration in rat at 10 mg/mL, iv and po. The series is classed as ADME, organism-based. Conditions: in vivo.
A short description of series [9]: Half life in rat at 10 mg/mL, iv and po. The series is classed as ADME, organism-based. The following applies: in vivo.
A short description of series [10]: Oral bioavailability in rat at 10 mg/mL. The series is classed as ADME, organism-based. The following applies: in vivo.
Series [11] concerns Cartilage tissue. Nature of the series: Ex vivo inhibition of IL-1 and oncostatin M-induced bovine nasal cartilage degradation assessed as release of hydroxproline measured up to 16 days by mass spectrometry. The series is classed as functional, tissue-based. Conditions: Bos taurus, 384 h.
The nature of series [12]: Cmax in rat at 20 mg/kg, po. It is filed as ADME, organism-based. More on the design: dose 20 mg/kg, route oral. The following applies: in vivo.
Series [13] concerns Rattus norvegicus. Nature of the series: Plasma concentration in rat at 20 mg/kg, po. The following applies: in vivo. Details: dose 20 mg/kg, route oral. The series is classed as ADME, organism-based.
Series [14] in a line: Half life in rat at 20 mg/kg, po. The series is classed as ADME, organism-based. Details: dose 20 mg/kg, route oral. Conditions: in vivo.
A short description of series [15]: Oral bioavailability in rat at 20 mg/kg. The series is classed as ADME, organism-based. The following applies: in vivo.
Series [16] addresses Matrix metalloproteinase-9 (Homo sapiens, UniProt P14780).
The target in series [17] is Matrix metalloproteinase-14 (Homo sapiens, UniProt P50281).
The subject of series [18] is Rattus norvegicus. Nature of the series: Cardioprotective activity in rat myocardial infarction model assessed inhibition of left ventricular dilation at 50 mg/kg, po qd for 4 weeks (reference value: 0.69 +/- 0.02 mL). It is filed as functional, Heart left ventricle.

A word on the pIC50: it is the IC50 on a negative log10 scale, so that one unit is a factor of ten. In general, Cmax refers to the maximum level reached in the sampled fluid or tissue. Usually half-life stands for how long it takes for the measured level to halve. As a reminder, the bioavailability is dose-corrected exposure relative to a reference, in per cent. Read a low bioavailability as poor availability.

pIC50: −log10 of the molar value. A value given as a limit tells only on which side of the number the result lay.

Sequence of Matrix metalloproteinase-9 (P14780 whole entry): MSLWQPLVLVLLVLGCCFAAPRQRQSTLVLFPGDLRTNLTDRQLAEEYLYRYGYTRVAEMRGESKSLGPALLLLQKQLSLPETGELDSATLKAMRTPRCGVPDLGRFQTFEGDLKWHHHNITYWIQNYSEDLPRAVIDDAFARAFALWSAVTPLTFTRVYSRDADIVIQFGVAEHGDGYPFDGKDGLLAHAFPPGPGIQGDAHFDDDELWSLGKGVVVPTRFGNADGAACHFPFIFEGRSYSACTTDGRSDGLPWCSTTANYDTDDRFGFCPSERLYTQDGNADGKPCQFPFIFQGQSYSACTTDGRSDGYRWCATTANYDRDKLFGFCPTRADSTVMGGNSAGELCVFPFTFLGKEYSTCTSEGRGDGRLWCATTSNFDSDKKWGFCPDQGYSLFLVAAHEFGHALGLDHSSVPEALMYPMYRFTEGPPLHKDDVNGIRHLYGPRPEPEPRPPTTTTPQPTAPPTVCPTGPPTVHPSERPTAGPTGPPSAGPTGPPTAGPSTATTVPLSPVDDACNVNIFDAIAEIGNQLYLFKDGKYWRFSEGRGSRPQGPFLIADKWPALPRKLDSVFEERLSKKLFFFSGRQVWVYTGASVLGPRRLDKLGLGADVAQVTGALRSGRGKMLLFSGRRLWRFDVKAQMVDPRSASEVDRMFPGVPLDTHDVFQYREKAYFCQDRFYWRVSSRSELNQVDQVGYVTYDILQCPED

As for `O=C(NO)C1(S(=O)(=O)c2ccc(Oc3ccc(C(F)(F)F)cc3)cc2)CCOCC1`, the pIC50 in series [1] was 5.10; in series [2], 10.00; in [3], 7.66; in series [4] it was less than 5.00; in series [5] it was 8.03; in series [6], 9.40. Moreover, in [11], the pIC50 is 7.15. This molecule had a Cmax in series [7] of 4300 ng/mL. Also, the Cp in series [8] amounted to 1154 ng/mL. Further, the half-life in [9] is 2.68 h. The molecule further returned a bioavailability in [10] of 33%.
As to `O=C(NO)C1(S(=O)(=O)c2ccc(Oc3cccc(C(F)(F)F)c3)cc2)CCOCC1`, the pIC50 in series [1] is less than 5.00; in series [2] it was 9.10; in [3] it was 7.26; in series [5] it was 7.52; in [6], 9.10. Also, the Cmax in series [7] turned out to be 1140 ng/mL. This molecule showed a Cp in series [8] of 257 ng/mL. This molecule also gave a half-life in series [9] of 1.12 h. The bioavailability in series [10] turned out to be 18.3%.
With `COCCN1CCC(C(=O)NO)(S(=O)(=O)c2ccc(Oc3ccc(SC(F)(F)F)cc3)cc2)CC1`, the pIC50 is less than 5.00 in series [1]; 9.70 in series [2]; 7.62 in series [3]; 5.05 in series [4]; 8.72 in series [5]; 9.70 in [6]. The molecule also had a Cmax in [12] of 32900 ng/mL. Besides, in [13], the Cp amounted to 14078 ng/mL. This molecule showed a half-life in series [14] of 2.99 h. For the same molecule, the bioavailability in series [15] was found to be 34.1%.
`CC(C)Oc1ccc(Oc2ccc(S(=O)(=O)C3(C(=O)NO)CCOCC3)cc2)cc1`: the pIC50 in series [1] is 6.52; in [2], more than 10.00; in [6] it was 10.00; in series [16] it was more than 10.00; in [17] it was 7.98.
With `O=C(NO)C1(S(=O)(=O)c2ccc(Oc3ccc(SC(F)(F)F)cc3)cc2)CCOCC1`, the pIC50 was 5.30 in [1], 9.40 in series [2] and 9.40 in series [5]. The molecule further yielded a Cmax in [7] of 7270 ng/mL. The same molecule yielded a Cp in [8] of 3113 ng/mL. In series [9], this molecule gave a half-life of 1.71 h. Moreover, in [10], the bioavailability is 49%.
As to `C#CCN1CCC(C(=O)NO)(S(=O)(=O)c2ccc(Oc3ccc(S(C)(=O)=O)cc3)cc2)CC1`, the pIC50 was less than 5.00 in [1], 8.48 in [2] and 8.54 in [6]. Further, in series [18], the Activity is 0.63 mL.
Consider `O=C(NO)C1(S(=O)(=O)c2ccc(Oc3ccc(C(F)(F)F)cc3)cc2)CCNCC1`, for which the pIC50 in series [1] was less than 5.00; in series [2], 8.77; in [3], 7.19; in series [5], 8.70; in series [6], 8.92; in series [17], 6.80. Moreover, the peak level in series [12] (Cmax) was 540 ng/mL. The molecule also registered a Cp in series [13] of 150 ng/mL. The half-life in [14] is 1.88 h. The bioavailability in [15] came out at 12.4%.
Consider `COCCN1CCC(C(=O)NO)(S(=O)(=O)c2ccc(Oc3ccc4c(c3)OCO4)cc2)CC1`, for which the pIC50 is 5.62 in series [1]; 9.60 in series [2]; 7.70 in [3]; 8.92 in series [5]; 9.70 in [6]; 8.40 in series [17].
For the molecule `O=C(NO)C1(S(=O)(=O)c2ccc(Oc3ccc(OC(F)(F)F)cc3)cc2)CCN(Cc2cccnc2)CC1`, the pIC50 in series [1] is 5.34; in series [2], more than 10.00; in series [3] it was 7.37; in [4], less than 5.00; in series [5] it was 8.82; in [6], 9.70. In addition, the Cmax in [12] came out at 52600 ng/mL. Moreover, in series [13], the Cp was determined as 1900 ng/mL. Further, the half-life in series [14] is 1.05 h. Besides, in series [15], the bioavailability came out at 49.8%.
In [2], `O=C(NO)C1(S(=O)(=O)c2ccc(Oc3ccncc3)cc2)CCOCC1` had a pIC50 of 9.30. For the same molecule, the concentration in series [7] peaked (Cmax) at 1610 ng/mL. In [8], this molecule yielded a Cp of 3 ng/mL. In addition, the half-life in series [9] is 0.25 h. This molecule also gave a bioavailability in series [10] of 42.3%.
Consider `O=C(NO)C1(S(=O)(=O)c2ccc(Oc3ccc(O)cc3)cc2)CCOCC1`, for which the pIC50 in series [1] was 6.40; in series [2], 9.70; in [6], 9.52; in series [16], more than 10.00; in series [17] it was 8.77.
Consider `O=C(NO)C1(S(=O)(=O)c2ccc(Oc3cccc(Cl)c3)cc2)CCOCC1`, for which the pIC50 in series [3] is 7.74; in series [5], 8.74; in [17], 8.35.
Regarding `O=C(NO)C1(CS(=O)(=O)c2ccc(Oc3ccc(Cl)cc3)cc2)CCOCC1` [CTS-1027], the pIC50 in series [11] was 7.52.
For `CC(=O)N1CCC(C(=O)NO)(S(=O)(=O)c2ccc(Oc3ccc(OC(F)(F)F)cc3)cc2)CC1`, the negative-log IC50 (pIC50) in [3] is 7.74; in series [5] it was 8.80; in series [17] it was 8.05. Besides, in [12], the peak concentration (Cmax) stood at 159 ng/mL. Also, in series [13], the Cp was found to be 72 ng/mL. The half-life in [14] is 1.06 h. This molecule gave a bioavailability in series [15] of 4%.
As for `O=C(NO)C1(S(=O)(=O)c2ccc(Oc3ccc(OC(F)(F)F)cc3)cc2)CCN(Cc2ccccn2)CC1`, the pIC50 was 5.22 in [1]; 6.94 in series [3]; less than 5.00 in [4]; 9.22 in series [5]; more than 10.00 in series [6]. Further, in [12], the Cmax is 36800 ng/mL. In series [13], the Cp amounted to 1850 ng/mL. This molecule had a half-life in series [14] of 1.25 h. The molecule further yielded a bioavailability in [15] of 46.8%.
As for `O=C(NO)C1(S(=O)(=O)c2ccc(Oc3ccc(C(F)(F)F)cc3)cc2)CCN(C2CC2)CC1`, the pIC50 in series [2] was 10.00; in series [3], 7.11; in [4] it was less than 5.00; in series [5], 8.89. Also, in series [12], the highest concentration (Cmax) stood at 8320 ng/mL. This molecule also yielded a Cp in [13] of 631 ng/mL. Besides, the half-life in [14] is 1.48 h. The same molecule showed a bioavailability in [15] of 36.3%.
For the molecule `O=C(NO)C1(S(=O)(=O)c2ccc(Oc3ccccc3)cc2)CCOCC1`, the pIC50 is 10.00 in series [2], 8.15 in [3], 9.40 in series [5] and 10.00 in series [6]. In addition, the Cmax in [7] is 872 ng/mL. This molecule also registered a Cp in [8] of 50 ng/mL. This molecule also showed a half-life in [9] of 1.74 h. Further, in [10], the bioavailability worked out at 5.8%.
Consider `O=C(NO)C1(S(=O)(=O)c2ccc(Oc3ccc(OC(F)(F)F)cc3)cc2)CCOCC1`, for which the negative-log IC50 (pIC50) in series [3] is 7.46; in series [5] it was 9.05; in series [17] it was 7.97. In addition, the concentration in series [7] peaked (Cmax) at 8580 ng/mL. Further, the Cp in series [8] was found to be 1172 ng/mL. In [9], this molecule had a half-life of 1.87 h. Besides, the bioavailability in series [10] is 35.9%.
In the case of `O=C(NO)C1(S(=O)(=O)c2ccc(Oc3ccc(Cl)cc3)cc2)CCOCC1`, the figures for the pIC50 in series [3] and in [5] were 7.74 and 8.92, respectively. In [7], this molecule had a Cmax of 3120 ng/mL. In [8], the Cp turned out to be 506 ng/mL. Also, the half-life in [9] was 1.5 h. This molecule also yielded a bioavailability in series [10] of 45.8%.

For the origin of these results see ChEMBL document CHEMBL1800055, “Orally active MMP-1 sparing α-tetrahydropyranyl and α-piperidinyl sulfone matrix metalloproteinase (MMP) inhibitors with efficacy in cancer, arthritis, and cardiovascular disease” (J Med Chem, 2010).
